Reference: patent US20260151518A1, “LEUKOCYTE-SPECIFIC CELL PENETRATING MOLECULES” (Amytrx Therapeutics, Inc., priority 2021, published 2026)

Experiment: Concentrations of radioactivity in whole blood, plasma, WBC depleted blood and recovered white blood cells after single subcutaneous administration of [3H]-AMTX-100
Assay type: in vivo, rat
Design: key to Concentration of radioactivity in Recovered White Blood Cells: BLQ: Below limit of accurate quantification
Settings: 5 mg/kg; for Concentration of radioactivity in WBC depleted blood / Concentration of radioactivity in Whole Blood / Concentration of radioactivity in Plasma / Concentration of radioactivity in Recovered White Blood Cells: rat; for Concentration of radioactivity in Plasma: plasma not depleted of white blood cells; for Concentration of radioactivity in Recovered White Blood Cells: reverse wash of filters; for Cmax, total radioactivity: male non-pigmented rats
Method: [^3H]-NSP labelling. For the main phase of the study, the test protein was prepared, radiolabeled with N-succinimidyl-[2,3-3H]-propionate ([^3H]-NSP) and purified as described below.
Three aliquots of 1.6 mL [^3H]-NSP solution were dispensed into appropriate vials. The solvent was evaporated under a gentle stream of nitrogen gas at ambient temperature. Once enough of the solvent had been evaporated, the three aliquots were combined into one vial and the remaining solvent evaporated until dryness. The residue in the vial was re-suspended in 0.6 mL of 1 mg/mL AMTX-100 by gently vortex mixing to ensure complete mixing of the protein with the labelling reagent. The solutions were allowed to stand at ambient temperature for approximately 1 hour.
The [^3H]-NSP-protein solutions were then purified by reverse phase chromatography techniques and the resulting solution was frozen and lyophilized using a freeze drier. The resulting material was dissolved in 2 mL ethanol:water (50:50) and stored at approximately −20° C. prior to formulation for dose preparation.
Formulation. The required quantities of each radiolabeled test item were combined with the corresponding non-labelled test item as appropriate to achieve a radioactive concentration sufficient to meet the aims of the study. Dose solutions were prepared in PBS buffer pH 7.4, with the intention of administering a total dose volume of […], (2.5 ml/kg, […]).
Whole blood was collected into tubes containing K2-EDTA as anticoagulant. Following collection, an aliquot of whole blood (approximately 4 mL) was retained for analysis of whole blood and white blood cell (WBC) concentrations. The remaining whole blood samples were processed to plasma. Plasma samples were not depleted of white blood cells.
AMTX-100 was radiolabeled with 3H at lysine residues and injected into Sprague-Dawley rats in a single dose by seven different routes (intravenous, subcutaneous, topical [skin], intratracheal, intraduodenal, esophageal, and oral). The rats were evaluated at various time points, up to 120 hours, by: a) blood samples were taken for pharmacokinetics (PK) by cardiac puncture; b) rats were frozen and sectioned for QWBA and/or micro-auto-radiography and histology; and c) frozen sections were made and freeze dried and exposed to phosphor-storage imaging plates and tissue radioactivity in images was quantified as tissue: blood ratios.
For all PK studies, the following definitions were used: WB=whole blood; Plasma=whole blood depleted of red blood cells; WBCD=whole blood depleted of white blood cells in which the whole blood is passed over a Pall Acrodisc filter (about 60% efficient); WBCs=the cells which bind to, and are washed off, the Pall Acrodisc filter.

## CSCC[C@@H]1NC(=O)[C@H](CC(C)C)NC(=O)[C@H](CCCCN)NC(=O)[C@H](CCC(N)=O)CC(=O)[C@H](CCCNC(=N)N)NC(=O)[C@H](CCCCN)NC(=O)[C@H](CCCNC(=N)N)NC(=O)[C@H](CCC(N)=O)NC(=O)[C@H](C(C)C)NC(=O)[C@@H](NC(=O)[C@@H]2CCCN2C(=O)[C@H](C)NC(=O)[C@H](CC(C)C)NC(=O)[C@H](CC(C)C)NC(=O)[C@H](C)NC(=O)[C@H](CC(C)C)NC(=O)[C@H](CC(C)C)NC(=O)[C@@H](NC(=O)[C@H](C)NC(=O)[C@@H]2CCCN2C(=O)[C@H](CC(C)C)NC(=O)[C@H](CC(C)C)NC(=O)[C@H](C)NC(=O)[C@@H](NC(=O)[C@H](C)NC(=O)[C@H](C)N)C(C)C)C(C)C)CSSC[C@@H](C(=O)O)NC(=O)[C@@H]2CCCN2C1=O [[^3H]-AMTX-100]
1 h
  Concentration of radioactivity in WBC depleted blood: 0.015 μg equivalents/mL
  Concentration of radioactivity in Whole Blood: 0.081 μg equivalents/mL
  Concentration of radioactivity in Plasma: 0.110 μg equivalents/mL
  Concentration of radioactivity in Recovered White Blood Cells: BLQ
2 h
  Concentration of radioactivity in WBC depleted blood: 0.011 μg equivalents/mL
  Concentration of radioactivity in Whole Blood: 0.059^3 μg equivalents/mL
  Concentration of radioactivity in Plasma: 0.084 μg equivalents/mL
  Concentration of radioactivity in Recovered White Blood Cells: BLQ
4 h
  Concentration of radioactivity in WBC depleted blood: 0.011 μg equivalents/mL
  Concentration of radioactivity in Whole Blood: 0.054 μg equivalents/mL
  Concentration of radioactivity in Plasma: 0.068 μg equivalents/mL
  Concentration of radioactivity in Recovered White Blood Cells: BLQ
8 h
  Concentration of radioactivity in WBC depleted blood: 0.011 μg equivalents/mL
  Concentration of radioactivity in Whole Blood: 0.070 μg equivalents/mL
  Concentration of radioactivity in Plasma: 0.090 μg equivalents/mL
  Concentration of radioactivity in Recovered White Blood Cells: BLQ
24 h
  Concentration of radioactivity in WBC depleted blood: 0.021 μg equivalents/mL
  Concentration of radioactivity in Whole Blood: 0.120 μg equivalents/mL
  Concentration of radioactivity in Plasma: 0.146 μg equivalents/mL
  Concentration of radioactivity in Recovered White Blood Cells: BLQ
48 h
  Concentration of radioactivity in WBC depleted blood: 0.033 μg equivalents/mL
  Concentration of radioactivity in Whole Blood: 0.186 μg equivalents/mL
  Concentration of radioactivity in Plasma: 0.221 μg equivalents/mL
  Concentration of radioactivity in Recovered White Blood Cells: BLQ
Plasma
  Cmax, total radioactivity: 221 ng/mL
WBCD blood
  Cmax, total radioactivity: 33 ng/mL
Whole blood
  Cmax, total radioactivity: 186 ng/mL
